Experimental data as given in US12185726B2, “Method for efficiently collecting and purifying Orobanche cumana (O. cumana) germination stimulants using aeroponic system and solid-phase extraction (SPE)” (ZHEJIANG UNIVERSITY, priority 2019, dated 2025).

What was measured:
[1] = tested on: O. cumana seeds; settings: at nanomolar and micromolar concentrations; sunflower root exudates; cited from earlier work
[2] = tested on: O. cumana; experiment: Biological activities of the four O. cumana germination stimulants detected in stimulants collected under the aeroponic system (UHPLC-TQ-MS detection); parameters: species or system Orobanche cumana; settings: collected sunflower root exudate stimulants
Source text: 7) The ultra-high performance liquid chromatograph-triple quadrupole mass spectrometry (UHPLC-TQ-MS) was adopted to separate and detect the components of obtained O. cumana germination stimulants. The O. cumana germination stimulants in sunflower root exudates were identified using ultra-high performance liquid chromatography-mass spectrometry (UHPLC-MS/MS), and analyzed using Micromass Quattro Premier XE tandem mass spectrometer (Waters, USA). The mass spectrometer was equipped with an electrospray ionization source (ESI) and combined with a UHPLC system. Chromatographic conditions: UHPLC C18 column (100 mm×2.1 mm, 1.7 μm), and mobile phase: water-methanol. Gradient elution process: 30% methanol for 1 min; 5 min of transition to 80% methanol, and holding at 80% methanol for 1 min; and 0.2 min of transition back to 30% methanol. The column was equilibrated in this solvent composition for 1.8 min before proceeding to the next run. Each run: 9 min; column temperature: 50° C.; flow rate: 0.4 mL/min; and injection volume: 30 μl. MS conditions: ESI, in positive ion scanning mode; gas flow rates of atomizer and desolventizing: 50|h^−1 and 800|h^−1, respectively; capillary voltage: 2.7 kV; extraction cone voltage: 20 V, source temperature: 120° C.; and desolventizing gas temperature: 450° C. 3.0×10^−3 mbar argon was used for collision to induce dissociation and fragmentation. The collision energy for each compound was optimized. Multiple response monitoring (MRM) scanning mode was adopted to search for O. cumana germination stimulants. Mass-to-charge ratio scan range data can be found in (Raupp & Spring 2013; Ueno et al. 2014). In this experiment, based on previous literature data, four types of O. cumana germination stimulants were selected for detection. Three are biologically-active sesquiterpenes isolated from O. cumana germination stimulants, namely, dehydrocostus lactone, costunolide, and 8-epixanthatin, and the remaining one is a non-sesquiterpene, namely, heliolactone.

Compound	stimulation of the germination of O. cumana seeds [1]	biological activity as O. cumana germination stimulant [2]
C=C1C(=O)O[C@@H]2C[C@H](C)C(CCC(C)=O)=CC[C@H]12 [tomentosin]	can stimulate the germination	
C=C1CC[C@H]2C(=C)CC[C@H]3C(=C)C(=O)O[C@@H]3[C@@H]12 [dehydrocostus lactone]		high activities
heliolactone		very low activity
C=C1C(=O)O[C@@H]2C[C@H](C)C(/C=C/C(C)=O)=CC[C@H]12 [8-epixanthatin]	can stimulate the germination	high activities
C=C1C(=O)O[C@@H]2/C=C(\C)CC/C=C(\C)CC[C@@H]12 [costunolide]	can stimulate the germination	high activities
